The test system of assay [1] is Antibodies prepared from BgG conjugate according to Example 4. Nature of the assay: Cross-reactivity in homogeneous enzyme immunoassay for propranolol (G6PDH conjugate, change in OD at 340nm). Particulars: Lot 2153; 100ng/ml propranolol standard. Type of assay: binding. How it is done:
(§1) Antibodies were prepared employing the conjugates of Examples 4 and 6 in accordance with known procedures. The bleeds were harvested and the antibodies isolated according to known techniques.
(§2) The following is the assay procedure employed for the determination of the presence of propranolol.
(§3) In carrying out the propranolol assay, a number of reagent solutions are prepared:
(§4) • 0.055M Tris-HCl • 0.05% Sodium Azide • 0.005% Thimerosal • pH8.1 at room temperature • Assay Buffer • Basic Buffer • 0.5% NaCl • 0.01% Triton X-100 • pH8.1 at room temperature • Substrate/Antibody Diluent • Basic Buffer • 1.0% RSA (Rabbit Serum Albumin) • 0.04M NAD • 0.066M glucose-6-phosphate • pH5.0 at room temperature • Enzyme Diluent • Basic Buffer • 1.0% RSA • 0.9% NaCl • pH 8.1 at room temperature • Antibody-Substrate Reagent A
(§5) Antibody Substrate is used to dilute gamma globulin isolated as above so that ca 70% of the G6PDH conjugate activity is inhibited in the assay solution.
(§6) The enzyme conjugate (e.g., Example 7) is diluted with enzyme diluent to attain the desired maximum rate. This is measured by aspirating into a spectrometer and taking the change in readings at 340nm over a 30 second period after a 15 second delay.
(§7) In carrying out the assay, the assay solution is prepared by combining the following: 50µl of the sample to be assayed, 50 µl of Reagent A, and 50 µl of Reagent B with 750 µl of assay buffer. The mixture is aspirated into a spectrometer and the A OD read at 340nm. The.concentration of propranolol in the sample is read from a standard curve prepared by using standardized solutions and taking readings.
(§8) The drugs listed below were used in preliminary testing for cross-reactivity with propranolol using the assay procedure described above: 4-hydroxypropranolol (4POH), N-desisopropyl-propranolol (DIPP), propranolol glycol (PG), naphthoxylactic acid (NLA), and naphthoxyacetic acid (NAA). All are metabolites of propranolol itself. […] The remainder show cross reactivity as below.

In assay [2] the test system is Antibodies prepared from BSA conjugate according to Example 6. Described as above. Type of assay: binding. Particulars: 100ng/ml propranolol standard. The procedure: as §1, §2, §3, §4, §5, §6, §7, §8

Regarding `OCC(O)COc1cccc2ccccc12` (stereo not drawn) [PG, propranolol glycol], the “CROSS-REACTIVITY, expressed as the concentration necessary to elevate the signal of a 100ng/ml standard solution by 30%” value (shortened to “CROSS-REACTIVITY, expressed … by 30%”) stood at 84 ng/mL in assay [1], 230 ng/mL in assay [2] (Lot 2215) and 400 ng/mL in assay [2] (Lot 2216).

For the compound `NCC(O)COc1cccc2ccccc12` (stereo not drawn) [DIPP, N-desisopropyl-propranolol], the “CROSS-REACTIVITY, expressed … by 30%” value amounted to 8 ng/mL in assay [1], 22 ng/mL in assay [2] (Lot 2215) and 200 ng/mL in assay [2] (Lot 2216).

Consider `CC(C)NCC(O)COc1ccc(O)c2ccccc12` (stereo not drawn) [Example 4POH, 4-hydroxypropranolol], for which the “CROSS-REACTIVITY, expressed … by 30%” value in assay [1] is 190 ng/mL; in assay [2] (Lot 2215), greater than 1000 ng/mL; in assay [2] (Lot 2216), greater than 1000 ng/mL.

Values taken from patent publication EP0045334A1, “Propranolol antigen conjugates and antibodies and method of using them” (SYVA COMPANY, priority 1980, dated 1982).
